Measured values: patent US9636299B2, “Method for treating diabetic retinopathy” (XAVIER UNIVERSITY OF LOUISIANA, priority 2012, dated 2017)
Residues, ends and D or L forms follow the SMILES beside them.

What was measured:
occludin = assay: Occludin expression in high glucose-treated hRMECs (Western blot); type: cell-based, human
Excerpt: Cell Culture. Primary cultures of human retina microvascular endothelial cells (hRMECs) were purchased from the Applied Cell Biology Research Institute and grown on attachment factor-coated plates in cell systems complete (CSC) medium (Cell Systems, Kirkland, Wash.) supplemented with 20% fetal bovine serum, culture boost (animal derived growth factors) and bac-off (antibiotics). The primary hRMECs were used in their passages 4 to 6. The 18-a.a. apoE mimetic peptide apoEdp (SEQ ID NO:3, Ac-LRKLRKRLLLRKLRKRLL-amide), derived from the human apolipoprotein E receptor-binding region (see SED ID NO:1) between residues 141 and 149, was synthesized (Genemed, Arlington, Tex.) with a purity of greater than 95%. The apoEdp peptide was dissolved in phosphate-buffered saline (“PBS”) at a concentration appropriate for further experimental use. […]
Western Blotting. […] The total protein concentration was determined using a BCA protein assay kit (Pierce, Rockford, Ill.). […] To ensure the equal loading of protein in each lane, each membrane was stripped and re-probed with an antibody against β-actin, and the chemiluminescence was detected as described previously. After scanning the blots with a flatbed scanner, band intensities were analyzed using ImageJ (NIH) and the relative intensity values were normalized to control values. […]

MMP2 = assay: Laser photocoagulation-induced retinal injury in mice, MMP2 real-time RT-PCR; type: in vivo, mouse; details: apoEdp 40 mg/kg intraperitoneally once each day for 7 days, vs mice without apoEdp
Method: Laser Photocoagulation-Induced Retinopathy. Female mice (C57BL/6J), aged 6-8 weeks, were used for retinal laser photocoagulation studies. The mice were treated and maintained in accordance with the ARVO Statement for the Use of Animals in Ophthalmic and Vision Research. The mice were anesthetized by intraperitoneal injection of a mixture of ketamine (100 mg/kg; Warner Lambert Co., Morris Plains, N.J.) and xylazine (10 mg/kg; Bayer AG, Leverkusen, Germany), and the pupils dilated with 2.5% tropicamide (Alcon, Fort Worth, Tex.). […]
RNA Extraction, Reverse Transcription, & PCR. […] Gene expression was measured at RNA level per 100 ng of total RNA using one-step RT-PCR kit (Bio-Rad, Hercules, Calif.). Four host genes (mouse GAPDH, mouse MMP2, mouse HPSE-1 (heparanase-1), and mouse MMP9) were analyzed to confirm relative quantitative expression levels. The primer pairs used were specifically designed and synthesized by Qiagen GmbH, Hilden, Germany (Quantitech Primer assay kit, for each host gene, catalog numbers QT01658692, QT00088396, QT00009555, and QT00040040, respectively). One-step Real-time quantitative RT-PCR reactions were performed in a 50-μL volume containing a solution of 1× supermix (iQ SYBR Green; Bio-Rad, Hercules, Calif.), 1 μM mix of forward and reverse primers, and 5 μL total RNA. […] Relative quantitative expression levels were determined for each gene. […]

CC(=O)N[C@@H](CC(C)C)C(=O)N[C@@H](CCCNC(=N)N)C(=O)N[C@@H](CCCCN)C(=O)N[C@@H](CC(C)C)C(=O)N[C@@H](CCCNC(=N)N)C(=O)N[C@@H](CCCCN)C(=O)N[C@@H](CCCNC(=N)N)C(=O)N[C@@H](CC(C)C)C(=O)N[C@@H](CC(C)C)C(=O)N[C@@H](CC(C)C)C(=O)N[C@@H](CCCNC(=N)N)C(=O)N[C@@H](CCCCN)C(=O)N[C@@H](CC(C)C)C(=O)N[C@@H](CCCNC(=N)N)C(=O)N[C@@H](CCCCN)C(=O)N[C@@H](CCCNC(=N)N)C(=O)N[C@@H](CC(C)C)C(=O)N[C@@H](CC(C)C)C(N)=O [apoEdp, Ac-LRKLRKRLLLRKLRKRLL-amide] (Ac-LRKLRKRLLLRKLRKRLL-NH2)
Occludin expression versus 30 mM glucose alone (occludin; hRMECs co-incubated with 100 μM apoEdp and 30 mM glucose): greater levels of occludin
High glucose-induced loss of tight junction protein occludin (occludin; hRMECs, 30 mM glucose 72 hours, 50 or 100 μM apoEdp): reduced
Expression of MMP2 in retina (MMP2): dramatically reduced
